{"source": "patent US3937821A", "about": "“Plasma substitute including artificial starch and method for the preparation thereof” (Kyorin Seiyaku Kabushiki Kaisha, priority 1971, dated 1976)", "key": {"Rats [1]": {"tested_on": "Rats", "settings": "rat, in vivo"}, "Mice [2]": {"tested_on": "Mice", "settings": "mouse, in vivo"}, "Rabbits": {"tested_on": "Rabbits", "settings": "rabbit, in vivo", "protocol": "(§1) Sera from all bleedings were analysed by passive cutaneous anaphylaxis reaction. Arthus reaction in rabbits and active anaphylaxis reaction in guinea pigs were performed too."}, "guinea pigs": {"tested_on": "guinea pigs", "settings": "guinea pig, in vivo", "protocol": "as §1"}, "Mice [3]": {"tested_on": "Mice", "settings": "mouse, in vivo", "remark": "listed apart in the source", "protocol": "as §1"}, "humans": {"tested_on": "humans", "settings": "in vivo, iv"}, "antibodies in human sera [4]": {"tested_on": "antibodies in human sera"}, "Rats [5]": {"tested_on": "Rats", "settings": "rat, in vivo; cited from earlier work"}, "Mice [6]": {"tested_on": "Mice", "settings": "mouse, in vivo; cited from earlier work"}, "patients": {"tested_on": "patients", "settings": "human, in vivo; cited from earlier work"}, "antibodies in human sera [7]": {"tested_on": "antibodies in human sera", "settings": "cited from earlier work"}}, "data": [{"substance": "Dextran", "values": [{"measurement": "anaphylactoid purpura", "setting": "Rats [1]", "value": "anaphylactoid purpura appeared in the paws, ears and tail"}, {"measurement": "anaphylactoid inflammation", "setting": "Rats [1]; iv", "value": "acute, serous anaphylactoid inflammation in the ears, snout and tail"}, {"measurement": "anaphylactoid purpura", "setting": "Mice [2]", "value": "anaphylactoid purpura appeared in the paws, ears and tail"}, {"measurement": "anaphylactoid inflammation", "setting": "Mice [2]; iv", "value": "acute, serous anaphylactoid inflammation in the ears, snout and tail"}, {"measurement": "antibodies detectable / immunogenicity", "setting": "Rabbits", "value": "not immunogenic"}, {"measurement": "antibodies detectable / immunogenicity", "setting": "guinea pigs", "value": "not immunogenic"}, {"measurement": "circulating antibodies", "setting": "Mice [3]", "value": "circulating antibodies were detected"}, {"measurement": "antibody production", "setting": "humans", "value": "do not lead to antibody production"}, {"measurement": "sera positive in passive cutaneous anaphylaxis reaction", "setting": "antibodies in human sera [4]", "value": "Three sera gave positive a reaction"}, {"measurement": "anaphylactoid reaction", "setting": "Rats [5]", "value": "edema and erythema of paws, ears and snout"}, {"measurement": "anaphylactoid reaction", "setting": "Mice [6]", "value": "edema and erythema of paws, ears and snout"}, {"measurement": "renal lesion or anaphylactic shock", "setting": "patients", "value": "6 - 8%"}, {"measurement": "human sera contain reacting antibodies; anaphylactic reaction after infusion", "setting": "antibodies in human sera [7]", "value": "human sera contain Dextran reacting antibodies of varying types"}]}]}
